The assay has as its target T1, JAK3 (Homo sapiens, UniProt P52333).
T1 sequence (P52333 1-1124): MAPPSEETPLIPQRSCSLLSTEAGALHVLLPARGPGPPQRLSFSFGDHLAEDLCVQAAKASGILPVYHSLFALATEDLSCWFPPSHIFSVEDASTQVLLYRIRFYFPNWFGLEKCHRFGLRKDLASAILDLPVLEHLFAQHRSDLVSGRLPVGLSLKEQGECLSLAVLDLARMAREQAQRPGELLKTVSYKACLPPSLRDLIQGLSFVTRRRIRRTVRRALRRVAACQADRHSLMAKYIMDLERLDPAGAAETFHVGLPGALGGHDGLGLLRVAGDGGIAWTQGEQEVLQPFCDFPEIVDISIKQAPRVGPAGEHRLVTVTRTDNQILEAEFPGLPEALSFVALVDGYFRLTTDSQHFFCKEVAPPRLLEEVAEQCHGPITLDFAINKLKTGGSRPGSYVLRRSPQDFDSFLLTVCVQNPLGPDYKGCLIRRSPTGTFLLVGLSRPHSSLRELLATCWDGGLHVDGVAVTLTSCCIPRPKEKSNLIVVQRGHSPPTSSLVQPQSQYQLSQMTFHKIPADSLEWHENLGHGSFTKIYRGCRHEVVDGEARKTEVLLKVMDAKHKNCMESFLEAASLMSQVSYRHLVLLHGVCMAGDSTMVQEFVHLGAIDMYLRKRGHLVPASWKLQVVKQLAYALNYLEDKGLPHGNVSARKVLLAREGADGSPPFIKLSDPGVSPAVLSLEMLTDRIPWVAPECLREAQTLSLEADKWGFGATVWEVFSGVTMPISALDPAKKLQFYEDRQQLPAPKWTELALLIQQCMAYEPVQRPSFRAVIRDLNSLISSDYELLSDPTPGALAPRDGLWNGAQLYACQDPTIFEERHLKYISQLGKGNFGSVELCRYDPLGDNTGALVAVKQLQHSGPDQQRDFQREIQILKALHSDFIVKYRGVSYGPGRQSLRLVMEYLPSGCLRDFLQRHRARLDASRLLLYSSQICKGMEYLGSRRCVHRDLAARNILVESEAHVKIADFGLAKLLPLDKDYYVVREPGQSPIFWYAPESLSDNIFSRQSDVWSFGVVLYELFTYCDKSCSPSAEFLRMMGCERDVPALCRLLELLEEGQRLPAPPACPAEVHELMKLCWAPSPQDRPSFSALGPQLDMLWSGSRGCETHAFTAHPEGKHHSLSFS
As to the kind of experiment: Mass spectrometry identification of a JAK3 peptide modified by compound. Type of assay: binding. Also noted: endogenous in cells; host or cells: Jurkat cells (ATCC TIB-152, clone E6-1) lysate; immunoprecipitated with anti-JAK3 antibody. Conditions: Jurkat cell lysate, 10 μM compound, 45 minutes, JAK3 immunoprecipitation, LC-MS/MS. The procedure:
Mass spectrometry analysis of immunoprecipitated JAK3 after compound treatment was used to determine whether compound example 1 covalently binds to JAK3. Jurkat cell lysate was pre-incubated with 10 μM of compound example 1 for 45 minutes. Control samples were incubated without compound (DMSO controls). Subsequently JAK3 was immunoprecipitated with an anti-JAK3 antibody (Abeam ab45141). In addition, a control experiment was performed with anti-IgG (mock immunoprecipitation). The precipitated proteins were separated by SDS-polyacrylamide gel electrophoresis. The gel was stained with colloidal Coomassie and stained areas of each gel lane were cut out and subjected to in-gel proteolytic digestion with trypsin. The peptides originating from the three samples were labeled with iTRAQ reagents as shown in Table 13 and the combined samples were analyzed with a nano-flow liquid chromatography system coupled online to a tandem mass spectrometer (LC-MS/MS) experiment followed by iTRAQ reporter ion quantification in the MSMS spectra (Ross et al., 2004. Mol. Cell. Proteomics 3(12):1154-1169). The gel area containing JAK3 was analysed for 270 minutes with HCDiq (high mass accuracy MSMS spectra) on a Orbitrap Velos mass spectrometer. For the Mascot search standard parameters plus a variable modification of cysteine by compound example 1 was used. […]

“Also recorded” adds a separate entry of the source.

As to `C=CC(=O)Nc1cccc(Cn2ncc3cnc(Nc4cnn(C)c4)nc32)c1` [Example 1, N-(3-((6-((1-Methyl-1H-pyrazol-4-yl)amino)-1H-pyrazolo[3,4-d]pyrimidin-1-yl)methyl)phenyl)acrylamide], the “covalent binding to JAK3 (modified residue/peptide)” value is “modified at cysteine 909; also recorded: covalently bound to cystein residue 909 (Cys909) of JAK3”.
